Reference: PMC4331264 (Biochimica et biophysica acta, 2015)
Like-named read-outs stand apart in the source and are kept apart here.

Experiments:
Ste2p [1] = conditions: cited from earlier work
Ste2p-FT-HT [2] = target: T1, Ste2p-FT-HT (Saccharomyces cerevisiae, UniProt D6VTK4, C252S/C59S); format: binding; conditions: read-out: cross-linking of [Bio-DOPA]13-mer, % of control, novobiocin 5 mM, [Bio-DOPA]13-mer 10 μM
[3] = test system: Ste2p-FT-HT signalling in LM102 cells (FUS1-lacZ); experiment: FUS1-lacZ reporter gene assay; format: cell-based, Saccharomyces cerevisiae; conditions: for FUS1-lacZ reporter gene activity of peptide alone: peptide alone (30 μM), absence of α-factor; for increase in FUS1-lacZ reporter gene activity over α-factor alone: α-factor 50 nM plus peptide 30 μM, 90 min, 30°C, mean of three determinations
Ste2p-FT-HT [4] = target: T1, Ste2p-FT-HT; format: binding; conditions: [Bio-DOPA]11-mer 85 μM
[5] = test system: Saccharomyces cerevisiae LM102 cells expressing Ste2p-FT-HT; experiment: Growth arrest; format: cell-based; conditions: for halo area in presence of novobiocin: novobiocin 2.2 mg/4.5 ml Noble agar-cell mixture; for growth arrest activity of peptide alone: peptide alone 15 μg/disk, no α-factor; for halo (zone of growth inhibition) area on co-spotting with α-factor: α-factor 0.1 μg/disk plus peptide 15 μg/disk, three replicates
Ste2p-FT-HT [6] = target: T1, Ste2p-FT-HT; format: binding; conditions: [3H]α-factor 5 nM; novobiocin 10^−4 M to 10^−11 M; 30 min on ice
Ste2p [7] = conditions: cited from earlier work; remark: listed apart in the source

T1 sequence (D6VTK4 whole entry C59S/C252S): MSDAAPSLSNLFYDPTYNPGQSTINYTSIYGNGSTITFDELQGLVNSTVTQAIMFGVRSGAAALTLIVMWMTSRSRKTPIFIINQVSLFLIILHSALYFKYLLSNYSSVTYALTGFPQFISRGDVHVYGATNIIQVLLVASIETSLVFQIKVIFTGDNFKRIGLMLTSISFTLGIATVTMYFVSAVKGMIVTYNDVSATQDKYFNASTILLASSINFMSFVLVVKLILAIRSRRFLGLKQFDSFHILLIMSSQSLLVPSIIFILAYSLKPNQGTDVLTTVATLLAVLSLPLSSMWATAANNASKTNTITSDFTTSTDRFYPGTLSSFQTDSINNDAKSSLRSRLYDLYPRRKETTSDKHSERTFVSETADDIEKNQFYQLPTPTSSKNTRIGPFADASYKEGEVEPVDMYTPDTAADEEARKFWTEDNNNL

In the case of `CO[C@@H]1[C@@H](OC(N)=O)[C@@H](O)[C@H](Oc2ccc3c(O)c(NC(=O)c4ccc(O)c(CC=C(C)C)c4)c(=O)oc3c2C)OC1(C)C` [novobiocin], the “agonistic activity in growth arrest assays” value (Ste2p [1]; S. cerevisiae strain supersensitive to α-factor) is listed as “weak agonistic activity”, the remaining activity at 5000 µM (Ste2p-FT-HT [2]; average over 3 replicate blots) is listed as 118% and the remaining activity at 5000 µM (Ste2p-FT-HT [2]; blot in Fig. 5) is listed as 136%. For the same compound, the “FUS1-lacZ response to novobiocin in presence of α-factor” value ([3]; 25 nM α-factor, repeated three times) was “dose-dependent increase in activity up to 12.5 μM”, the “FUS1-lacZ reporter gene activity, novobiocin by itself” value ([3]; no α-factor, concentrations up to 37.5 μM) was “failed to increase reporter gene activity” and the “FUS1-lacZ reporter gene activity, novobiocin by itself, higher amounts” value ([3]; no α-factor, up to 400 μM, data not shown) was “failed to stimulate reporter gene activity”. The “maximal inhibition of [Bio-DOPA]11-mer cross-linking” value (Ste2p-FT-HT [4]; between 10 and 50 mM novobiocin, Fig. 6) was ~ 90%, the remaining activity at 5000 µM (Ste2p-FT-HT [4]; read-out: labeling (cross-linking of [Bio-DOPA]11-mer), % of control level, novobiocin 5 mM, average over 3 replicate blots) was 26% and the “intrinsic agonistic activity in growth arrest assay” value ([5]; novobiocin by itself, up to 2.2 mg/disk) was “no measurable, intrinsic agonistic activity”. For the same compound, the “increase of halo area in presence of novobiocin, without paper disk” value ([5]; α-factor 10 ng spotted directly onto lawn containing novobiocin 2.2 mg/lawn) was 45%, the “halo area in presence of novobiocin” value ([5]; α-factor 0.1 μg/disk) was 155 ± 24 mm^2 and the “halo area in presence of novobiocin” value ([5]; α-factor 0.2 μg/disk) was 273 ± 14 mm^2. For the same compound, the “competition with [3H]α-factor for binding to Ste2p-FT-HT” value (Ste2p-FT-HT [6]) was “did not prevent α-factor binding to the receptor”.

For “[DOPA^1, K^7 (BiotinACA)] α-factor [[Bio-DOPA]13-mer]”, the biological activity (Ste2p [1]; binds the orthosteric site of the receptor) is listed as “retains biological activity”.

For “DOPA-HWLQLK(BiotinACA)PGQP [[Bio-DOPA]11-mer, [DOPA^1, K^7 (BiotinACA),desM^12desY^13] α-factor]”, the “FUS1-lacZ reporter gene activity of peptide alone” value [3] was “no intrinsic biological activity”, the “increase in FUS1-lacZ reporter gene activity over α-factor alone” value [3] was “approximately 2 fold” and the “growth arrest activity of peptide alone” value [5] was “no intrinsic biological activity”. The “halo (zone of growth inhibition) area on co-spotting with α-factor” value [5] was 309 ± 27 mm^2.

For WHWLQLKPGQP [11-mer], the innate biological activity (Ste2p [1]; wild-type yeast strain) is given as “no innate biological activity”, the “agonist activity in supersensitive mutant” value (Ste2p [1]; yeast mutant supersensitive to the ligand) is given as “very weak agonist” and the “FUS1-lacZ reporter gene activity of peptide alone” value [3] is given as “did not stimulate reporter gene activity over control levels”. The “increase in FUS1-lacZ reporter gene activity over α-factor alone” value [3] was 2.5 fold, the “competition for binding with α-factor” value (Ste2p [7]) was “did not compete for binding with α-factor” and the “influence on affinity of the receptor for α-factor” value (Ste2p [7]; wild-type yeast strain) was “did not influence the affinity of the receptor for the ligand”. For the same compound, the “growth arrest activity of peptide alone” value [5] was “no biological activity” and the “halo (zone of growth inhibition) area on co-spotting with α-factor” value [5] was 382 ± 36 mm^2.
